We go through 3 molecules from patent US9603821B2, “Inhibitor of τ protein phosphorylation” (NISHIZAKI BIOINFORMATION RESEARCH INSTITUTE, priority 2013, dated 2017).

Test [1] has as its system 5XFAD mouse. Nature of the test: Water maze test in 5XFAD mouse. It is filed as in vivo. The settings on record: oral, 30 min before water maze test, daily, DCP-LA 1 mg/kg, galanthamine 2.5 mg/kg, FIG. 6. From the text:
XFAD transgenic mouse is an animal model of Alzheimer's disease (AD), and contains five mutations of familial Alzheimer's disease (FAD) [Swedish, Florida and London mutations of human amyloid precursor protein (APP), and M146L and L286V mutations of presenilin (PS); Oakley H et al., J. Neurosci. 2006; 26: 10129-10140]. In 5XFAD mouse, Swedish mutation increases production of total amyloid β peptide (Aβ), and the remaining mutations particularly promote production of Aβ1-42.
5XFAD mouse was purchased from The Jackson Laboratory (Bar Harbor, Me., USA), and maintained by crossing with heterozygous transgenic mouse with B6/SJLF1 breeding stock. Non-transgenic wild-type litter-mate was used as a control. All experiments were performed at the age of 5.5-6.5 months.
A circular plastic water tank (diameter 90 cm, depth 36 cm) was used. The inside of the water tank was completely painted in white, and water containing White India ink was filled up to 20 cm from the bottom (22-25° C.). A platform (diameter 11 cm) painted in white was placed in water such that it was 1 cm below the water surface. The water tank was placed in a test room, and several marks seen by the mouse from the water tank were put thereon. During the test, the position of the marks was not changed. A platform was placed a predetermined position from the equal distance from the center and the end of the water tank, namely, center of one quadrant. At one of the randomly selected 3 points, the mouse was released facing the wall of the water tank, and the time necessary for evacuating on the platform (acquisition latency) was measured. When smoothly evacuated, the mouse was left on the platform for 10 seconds. […] The test was performed twice a day, and the second test was started at 30 seconds after the first test. The test was continuously performed for 8 days, and the mean (±SEM) of acquisition latency of continuous 2 days until the mouse reached the platform was calculated. After 7 days, the platform was removed and the time necessary for reaching the place where the platform was located (retention latency) was measured.
DCP-LA and galanthamine were dissolved in polyethylene glycol (PEG). DCP-LA, galanthamine and PEG were administered with an oral gavage needle 30 min before the water maze test.

Test [2] concerns the target T1, human recombinant PKCε (Homo sapiens, UniProt Q02156).
T1 construct: His; purchased Calbiochem
T1 sequence (Q02156 1-737): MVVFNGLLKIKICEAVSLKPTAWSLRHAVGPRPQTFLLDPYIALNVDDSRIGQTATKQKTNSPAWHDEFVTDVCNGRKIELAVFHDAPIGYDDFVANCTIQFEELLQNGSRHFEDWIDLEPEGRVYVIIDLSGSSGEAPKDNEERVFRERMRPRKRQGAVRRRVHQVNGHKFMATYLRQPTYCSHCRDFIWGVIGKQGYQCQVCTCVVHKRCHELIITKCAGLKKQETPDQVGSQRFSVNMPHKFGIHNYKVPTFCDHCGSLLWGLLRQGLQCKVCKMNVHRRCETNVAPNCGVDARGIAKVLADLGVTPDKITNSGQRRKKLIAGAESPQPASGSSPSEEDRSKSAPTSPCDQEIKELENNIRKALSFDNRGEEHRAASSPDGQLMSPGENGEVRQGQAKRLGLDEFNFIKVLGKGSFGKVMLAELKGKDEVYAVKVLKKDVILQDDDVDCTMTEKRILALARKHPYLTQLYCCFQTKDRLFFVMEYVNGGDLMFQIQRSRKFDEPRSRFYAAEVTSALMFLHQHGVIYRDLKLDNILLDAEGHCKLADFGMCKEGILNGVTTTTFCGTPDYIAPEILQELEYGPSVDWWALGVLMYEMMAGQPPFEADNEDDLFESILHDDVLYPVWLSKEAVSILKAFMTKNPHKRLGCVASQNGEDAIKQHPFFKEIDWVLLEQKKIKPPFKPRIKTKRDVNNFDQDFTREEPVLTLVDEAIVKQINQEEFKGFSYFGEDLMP
As to the kind of experiment: GSK-3β assay under cell-free conditions with PKCε. The format is biochemical. The settings on record: FIG. 7. As for the experimental part: Human recombinant GSK-3β (Sigma, St. Louis, Mo., USA) was reacted with His-tagged human recombinant PKCε (Calbiochem, San Diego, Calif., USA) under cell-free conditions in the presence or absence of a given concentration (1-100 μM) of DCP-LA, and with or without addition of GF109203X, in a culture medium containing 20 mM Tris-HCl (pH 7.5), 5 mM Mg-acetate, 12.5 mM glycerol 2-phosphate and 250 μM ATP at 30° C. for 20 min. The protein was separated by SDS-polyacrylamide gel electrophoresis (SDS-PAGE), and transferred on a polyvinylidene difluoride membrane. The blotting membrane was blocked with TBS-T [150 mM NaCl, 0.1% (v/v) Tween20 and 20 mM Tris, pH 7.5] containing 5% (w/v) BSA, and sequentially reacted with anti-serine 9 phosphorylated GSK-3β antibody (Cell Signaling Technology, Inc., Danvers, Mass., USA) or anti-GSK-3β antibody (Cell Signaling Technology, Inc., Danvers, Mass., USA). After washing, the membrane was reacted with horseradish peroxidase conjugated goat anti-mouse IgG antibody or goat anti-rabbit IgG antibody. The immunoreactivity was detected using ECL kit (GE Healthcare, Piscataway, N.J., USA), and visualized using a chemical luminescence detection system (chemiluminescence detection system; GE Healthcare).

Test [3] deals with T2, Human PTP1B (Homo sapiens, UniProt P18031).
T2 construct: made in house; host or cells: E. coli BL21 (DE3)
T2 sequence (P18031 1-435): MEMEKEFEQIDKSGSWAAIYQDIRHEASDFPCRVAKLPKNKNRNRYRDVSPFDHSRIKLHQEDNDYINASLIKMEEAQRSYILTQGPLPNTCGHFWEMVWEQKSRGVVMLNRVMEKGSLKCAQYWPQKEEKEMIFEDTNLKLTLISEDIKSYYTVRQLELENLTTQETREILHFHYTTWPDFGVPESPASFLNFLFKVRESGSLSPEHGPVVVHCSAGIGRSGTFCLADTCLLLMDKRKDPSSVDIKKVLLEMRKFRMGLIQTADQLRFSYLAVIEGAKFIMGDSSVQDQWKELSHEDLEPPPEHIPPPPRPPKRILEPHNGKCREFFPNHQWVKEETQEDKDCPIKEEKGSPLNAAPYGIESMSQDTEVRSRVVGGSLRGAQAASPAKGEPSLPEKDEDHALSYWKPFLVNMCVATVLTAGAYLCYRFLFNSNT
As to the kind of experiment: Assay of PTP1B activity under cell-free conditions (p-NPP dephosphorylation). It is filed as biochemical. The settings on record: DCP-LA 1-100 μM, p-NPP 10 mM, FIG. 1. Here is the method: Protein tyrosine phosphatase was measured under cell-free conditions by a method partially modified from the methods described in previous reports (Baba Y, et al. J Am Chem Soc 2003; 125; 9740-9749; Rice R L, et al. Biochemistry 1997; 36: 15965-15974). Human PTP1B was cloned to a pGEX-6P-3 vector having a GST tag at the NH2 terminus, and expressed in competent E. coli BL21 (DE3) suitable for transformation and protein expression. GST fusion PTP1B was affinity-purified using glutathione sepharose 4B (GE Healthcare Bio-Science KK, Tokyo, Japan). It was reacted with p-nitrophenylphosphate (p-NPP) (Sigma, St. Louis, Mo., USA) as a substrate and PTP1B activity was measured. The enzyme was pre-incubated in a reaction medium [50 mM HEPES, 1 mM EDTA, 50 mM NaCl, 1 mM dithiothreitol, pH 7.2] at 37° C. for 30 min in the presence or absence of DCP-LA at a given concentration (1-100 μM) and with or without addition of Na3VO4 which is a PTP1B inhibitor. Then, p-NPP (10 mM) was added to the reaction medium, and the mixture was incubated for 60 min. The reaction was discontinued by the addition of 0.1N NaOH. Dephosphorylated p-NPP, i.e., p-NP, was quantified at an absorbance of 405 nm by using SpectraMax PLUS384 (Molecular Devices, Sunnyvale, Calif., USA).

For test [4], the system named is Akt. Nature of the test: Akt activation in rat hippocampus section, Western blotting. It is filed as cell-based. The settings on record: 100 nM, 3 min, FIG. 3. Here is the method: (§1) A rat hippocampus section (male Wister rat, 6-week-old, 400 μm) was incubated in an artificial cerebrospinal fluid (117 mM NaCl, 3.6 mM KCl, 1.2 mM NaH2PO4, 1.2 mM MgCl2, 2.5 mM CaCl2, 25 mM NaHCO3, and 11.5 mM glucose) oxygenated with 95% O2 and 5% CO2, in the presence or absence of DCP-LA (100 nM) at 34° C. for 3 min. In another experiment set, the section was incubated with Aβ1-42 (1 μM) for 3 hr in the presence or absence of DCP-LA (100 nM). After incubation, the section was homogenized by sonication in an ice-cooled cell lysis buffer containing 1% (v/v) protease inhibitor cocktail and 1% (v/v) phosphatase inhibitor cocktail, and the homogenate was centrifuged (3,000 rpm, 5 min, 4° C.). The protein concentration of the supernatant was measured using BCA protein assay kit (Thermo Fisher Scientific, Rockford, Ill., USA). The protein was separated by SDS-polyacrylamide gel electrophoresis (SDS-PAGE), and transferred onto polyvinylidene difluoride membranes. […]
(§2) After washing, the membranes were reacted with horseradish peroxidase-conjugated goat anti-mouse IgG antibody or goat anti-rabbit IgG antibody. The immunoreactivity was detected using ECL kit (GE Healthcare, Piscataway, N.J., USA), and visualized using a chemical luminescence detection system (chemiluminescence detection system; GE Healthcare).
(In general: In western blotting, separated proteins are transferred to a membrane and probed.)

Test [5] has as its system GSK-3β. As to the kind of experiment: GSK-3β phosphorylation in rat hippocampus section, Western blotting. It is filed as cell-based. Conditions: 100 nM, 3 min, FIG. 4. As for the experimental part:
as §1, §2

Test [6] has as its system τ protein. As to the kind of experiment: τ protein phosphorylation induced by Aβ1-42 in rat hippocampus section, Western blotting. The format is cell-based. The settings on record: Aβ1-42 1 μM for 3 hr, DCP-LA 100 nM, FIG. 5. As for the experimental part:
as §1, §2

Turning to `COc1ccc2c3c1O[C@H]1C[C@@H](O)C=C[C@@]31CCN(C)C2` [galanthamine, reference compound], in test [1], the acquisition latency result was “showed no effect” and the retention latency result is on record as “showed no effect”.
Consider `CN(C)CCCn1cc(C2=C(c3c[nH]c4ccccc34)C(=O)NC2=O)c2ccccc21` [GF109203X, reference compound], for which the “suppression of DCP-LA/PKCε-induced Ser9 phosphorylation of GSK-3β” value in test [2] (GF109203X 100 nM in the presence of DCP-LA and PKCε) is “phosphorylation is suppressed by GF109203X”.
Consider `CCCCCC1CC1CC1CC1CCCCCCCC(=O)O` (stereo not shown) [DCP-LA, 8-[2-(2-Pentyl-cyclopropylmethyl)-cyclopropyl]-octanoic acid], for which, in test [3], the “PTP1B inhibition (phosphatase activity, percentage of control)” value is “inhibits PTP1B in a concentration-dependent manner”. Besides, the “Akt activation (phosphorylation of Thr308 and Ser473 relative to total Akt)” value in test [4] is “has an action to activate Akt”. Further, in test [5], the “Ser9 phosphorylation of GSK-3β relative to total GSK-3β” value is “phosphorylates (inactivates) GSK-3β”. For the same molecule, the “Ser202/Thr205 phosphorylation of τ protein induced by Aβ1-42 relative to total τ protein” value in test [6] is “suppresses phosphorylation of τ protein induced by Aβ1-42”. Besides, in test [1], the acquisition latency result is “improved extension of both latencies to nearly normal levels” and the retention latency result was “improved extension of both latencies to nearly normal levels”. For the same molecule, the “Ser9 phosphorylation of GSK-3β by PKCε” value in test [2] (PKCε 1 μg/ml, DCP-LA 1-100 μM) is on record as “phosphorylates (inactivates) GSK-3β in the presence of PKCε”.
